Experimental data as given in patent US8268814B2, “Substituted sulfonamide compounds” (Gruenenthal GmbH, priority 2008, dated 2012).

Key:
[1] = target: T1, B1R receptor of the rat (rB1R) (Rattus norvegicus, UniProt P97583); experiment: Functional FLIPR Ca2+ assay on the bradykinin 1 receptor, rat (rB1R CHO K1 cells); format: cell-based; conditions: test substance 10 μM; CHO K1 cells transfected with rat B1R gene; agonist Des-Arg9-bradykinin at EC80; % inhibition compared with maximum achievable inhibition; read-out: B1R antagonism, rat [10 μM] % inhibition
T1 construct: expressed in transfected cells; host or cells: CHO K1 cells (Chinese hamster ovary), stably transfected
T1 sequence (P97583 1-337): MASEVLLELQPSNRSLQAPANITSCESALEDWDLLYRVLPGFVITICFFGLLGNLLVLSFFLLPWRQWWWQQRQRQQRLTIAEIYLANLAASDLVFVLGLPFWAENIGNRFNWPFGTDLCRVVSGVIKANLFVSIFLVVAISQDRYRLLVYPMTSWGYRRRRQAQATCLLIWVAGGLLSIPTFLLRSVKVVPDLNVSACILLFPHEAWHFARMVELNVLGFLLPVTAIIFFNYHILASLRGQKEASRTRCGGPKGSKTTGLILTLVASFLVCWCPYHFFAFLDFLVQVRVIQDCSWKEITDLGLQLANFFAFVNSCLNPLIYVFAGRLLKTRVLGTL
Summary of the method: (§1)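 Stably transfected CHO K1 cells expressing human or rat B1R, Fluo-4-loaded, Ca2+ influx read by FLIPR (peak fluorescence). Compounds (10 μM for % activation) preincubated 10-20 min, then EC80 agonist added: Lys-Des-Arg9-bradykinin for human, Des-Arg9-bradykinin for rat; % inhibition versus maximal inhibition, IC50 from concentration series.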

[2] = target: T2, human B1R receptor (hB1R) (Homo sapiens, UniProt P46663); experiment: Functional FLIPR Ca2+ assay on the bradykinin 1 receptor, human (hB1R CHO K1 cells); format: cell-based; conditions: test substance 10 μM; CHO K1 cells transfected with human B1R gene; agonist Lys-Des-Arg9-bradykinin at EC80; % inhibition compared with maximum achievable inhibition; read-out: B1R antagonism, human (10 μM] % inhibition
T2 construct: expressed in transfected cells; host or cells: CHO K1 cells (Chinese hamster ovary), stably transfected
T2 sequence (P46663 1-353): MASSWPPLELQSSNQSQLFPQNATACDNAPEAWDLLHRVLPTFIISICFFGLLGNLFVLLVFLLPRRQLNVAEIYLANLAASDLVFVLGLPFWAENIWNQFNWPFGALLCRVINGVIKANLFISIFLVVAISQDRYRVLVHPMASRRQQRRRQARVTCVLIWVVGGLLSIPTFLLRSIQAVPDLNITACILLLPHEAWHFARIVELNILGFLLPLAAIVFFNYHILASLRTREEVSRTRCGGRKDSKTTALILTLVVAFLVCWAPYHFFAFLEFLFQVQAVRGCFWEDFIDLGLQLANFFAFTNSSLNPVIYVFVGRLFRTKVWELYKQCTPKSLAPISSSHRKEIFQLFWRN
Summary of the method: as §1

SMILES	inhibition at 10 µM [1] [%]	inhibition at 10 µM [2] [%]
COc1cc(C)c(S(=O)(=O)N2CCCC[C@H]2COCC(=O)N2CCc3sc(CN4CCCC4)cc3C2)c(C)c1 [Example 62, 2-[[(2S)-1-[(4-methoxy-2,6-dimethyl-phenyl)sulfonyl]-piperidin-2-yl]-methoxy]-1-[2-(pyrrolidin-1-yl-methyl)-4,5,6,7-tetrahydro-thieno[3,2-c]pyridin-5-yl]-ethanone]	107	100
Cc1cc(S(=O)(=O)N2CCCCC2CCC(=O)N2CCc3sccc3C2c2ccncc2)c(C)cc1Cl (stereo not drawn) [Example 55, 3-[1-[(4-chloro-2,5-dimethyl-phenyl)sulfonyl]-piperidin-2-yl]-1-(4-pyridin-4-yl-4,5,6,7-tetrahydro-thieno[3,2-c]pyridin-5-yl)-propan-1-one]	103	88
COc1cc(C)c(S(=O)(=O)N2CCCCC2COCC(=O)N2CCc3onc(CN(C)C)c3C2)c(C)c1 (stereo not drawn) [Example 31, 1-(3-((dimethylamino)methyl)-6,7-dihydroisoxazolo[4,5-c]pyridin-5(4H)-yl)-2-((1-(4-methoxy-2,6-dimethylphenylsulfonyl)piperidin-2-yl)methoxy)ethanone]	105	100
O=C(C[C@@H](NS(=O)(=O)c1ccc2ccccc2c1)c1ccccc1)N1CCc2sccc2C1c1ccc(F)cc1 (stereo partly drawn) [Example 21, N-((1R)-3-(4-(4-fluorophenyl)-6,7-dihydrothieno[3,2-c]pyridin-5(4H)-yl)-3-oxo-1-phenylpropyl)naphthalene-2-sulfonamide]	70	34
COc1cc(C)c(S(=O)(=O)N2CCCCC2COCC(=O)N2CCc3sc(CN4CCN(C)CC4)cc3C2)c(C)c1 (stereo not drawn) [Example 50, 2-((1-(4-methoxy-2,6-dimethylphenylsulfonyl)piperidin-2-yl)methoxy)-1-(2-((4-methylpiperazin-1-yl)methyl)-6,7-dihydrothieno[3,2-c]pyridin-5(4H)-yl)ethan-1-one]	102	100
COc1cc(C)c(S(=O)(=O)N(C)CCOCC(=O)N2CCc3nc(-c4ccncc4)sc3C2)c(C)c1 [Example 49, 4-methoxy-N,2,6-trimethyl-N-(2-(2-oxo-2-(2-(pyridin-4-yl)-6,7-dihydrothiazolo[5,4-c]pyridin-5(4H)-yl)ethoxy)ethyl)benzenesulfonamide]	95	99
COc1cc(C)c(S(=O)(=O)N2CCCCC2COCC(=O)N2CCc3sccc3C2c2ccccc2)c(C)c1 (stereo not drawn) [Example 15, 2-((1-(4-methoxy-2,6-dimethylphenylsulfonyl)piperidin-2-yl)methoxy)-1-(4-phenyl-6,7-dihydrothieno[3,2-c]pyridin-5(4H)-yl)ethanone]	98	69
COc1cc(C)c(S(=O)(=O)N2c3ccccc3CC[C@H]2COCC(=O)N2CCc3sc(CN4CCCCC4)cc3C2)c(C)c1 [Example 61, 2-[[(2S)-1-[(4-methoxy-2,6-dimethyl-phenyl)sulfonyl]-1,2,3,4-tetrahydro-quinolin-2-yl]-methoxy]-1-[2-(piperidin-1-yl-methyl)-4,5,6,7-tetrahydro-thieno[3,2-c]pyridin-5-yl]-ethanone]	106	100
COc1cc(C)c(S(=O)(=O)N2CCCCC2COCC(=O)N2CCc3nc(Cc4ccncc4)sc3C2)c(C)c1 (stereo not drawn) [Example 38, 2-((1-(4-methoxy-2,6-dimethylphenylsulfonyl)piperidin-2-yl)methoxy)-1-(2-(pyridin-4-ylmethyl)-6,7-dihydrothiazolo[5,4-c]pyridin-5(4H)-yl)ethan-1-one]	97	99
O=C(CC1CCCCN1S(=O)(=O)c1cccc(C(F)(F)F)c1)N1CCc2onc(CN3CCCCC3)c2C1 (stereo not drawn) [Example 05, 1-(3-(piperidin-1-ylmethyl)-6,7-dihydroisoxazolo[4,5-c]pyridin-5(4H)-yl)-2-(1-(3-(trifluoromethyl)phenylsulfonyl)piperidin-2-yl)ethanone]	27	48
COc1cc(C)c(S(=O)(=O)N2CCCCC2COCC(=O)N2CCc3nc(-c4ccncc4)sc3C2)c(C)c1 (stereo not drawn) [Example 48, 2-((1-(4-methoxy-2,6-dimethylphenylsulfonyl)piperidin-2-yl)methoxy)-1-(2-(pyridin-4-yl)-6,7-dihydrothiazolo[5,4-c]pyridin-5(4H)-yl)ethan-1-one]	94	100
O=C(CC1CCCCN1S(=O)(=O)c1cccc(C(F)(F)F)c1)N1CCc2nc(Cc3ccncc3)sc2C1 (stereo not drawn) [Example 40, 1-(2-(pyridin-4-ylmethyl)-6,7-dihydrothiazolo[5,4-c]pyridin-5(4H)-yl)-2-(1-(3-(trifluoromethyl)phenylsulfonyl)piperidin-2-yl)ethan-1-one]	90	51
O=C(CC(NS(=O)(=O)c1ccc2ccccc2c1)c1ccccc1)N1CCc2nc(Cc3ccncc3)sc2C1 (racemic) [Example 42, N-(3-oxo-1-phenyl-3-(2-(pyridin-4-ylmethyl)-6,7-dihydrothiazolo[5,4-c]pyridin-5(4H)-yl)propyl)naphthalene-2-sulfonamide]	79	14
O=C(CC1CCCCN1S(=O)(=O)c1cccc(C(F)(F)F)c1)N1CCc2sccc2C1c1ccc(F)cc1 (stereo not drawn) [Example 19, 1-(4-(4-fluorophenyl)-6,7-dihydrothieno[3,2-c]pyridin-5(4H)-yl)-2-(1-(3-(trifluoromethyl)phenylsulfonyl)piperidin-2-yl)ethanone]	83	35
COc1cc(C)c(S(=O)(=O)N2CCCCC2CCCC(=O)N2CCc3nc(-c4ccncc4)sc3C2)c(C)c1 (stereo not drawn) [Example 53, 4-(1-(4-methoxy-2,6-dimethylphenylsulfonyl)piperidin-2-yl)-1-(2-(pyridin-4-yl)-6,7-dihydrothiazolo[5,4-c]pyridin-5(4H)-yl)butan-1-one]	98	96
COc1cc(C)c(S(=O)(=O)N(C)CCOCC(=O)N2CCc3sc(CN4CCCCC4)cc3C2)c(C)c1 [Example 28, 4-Methoxy-N,2,6-trimethyl-N-(2-(2-oxo-2-(2-(piperidin-1-yl-methyl)-6,7-dihydrothieno[3,2-c]pyridin-5(4H)-yl)ethoxy)ethyl)benzene-sulfonamide]	109	100
COc1cc(C)c(S(=O)(=O)N2CCCCC2CCC(=O)N2CCc3nc(Cc4ccncc4)sc3C2)c(C)c1 (stereo not drawn) [Example 41, 3-(1-(4-methoxy-2,6-dimethylphenylsulfonyl)piperidin-2-yl)-1-(2-(pyridin-4-ylmethyl)-6,7-dihydrothiazolo[5,4-c]pyridin-5(4H)-yl)propan-1-one]	99	64
COc1cc(C)c(S(=O)(=O)N2CCCCC2COCC(=O)N2CCc3onc(-c4ccncc4)c3C2)c(C)c1 (stereo not drawn) [Example 02, 2-((1-(4-methoxy-2,6-dimethylphenylsulfonyl)piperidin-2-yl)methoxy)-1-(3-(pyridin-4-yl)-6,7-dihydroisoxazolo[4,5-c]pyridin-5(4H)-yl)ethanone]	101	100
Cc1cccc(Cl)c1S(=O)(=O)N(CCOCC(=O)N1CCc2sc(CN3CCC3)cc2C1)C1CC1 [Example 56, N-[2-[2-[2-(Azetidin-1-yl-methyl)-4,5,6,7-tetrahydro-thieno[3,2-c]pyridin-5-yl]-2-oxo-ethoxy]-ethyl]-2-chloro-N-cyclopropyl-6-methyl-benzenesulfonic acid amide]	105	100
COc1cc(C)c(S(=O)(=O)N(C)CCOCC(=O)N2CCc3nc(Cc4ccncc4)sc3C2)c(C)c1 [Example 39, 4-methoxy-N,2,6-trimethyl-N-(2-(2-oxo-2-(2-(pyridin-4-ylmethyl)-6,7-dihydrothiazolo[5,4-c]pyridin-5(4H)-yl)ethoxy)ethyl)benzenesulfonamide]	99	100
Cc1cc(S(=O)(=O)N2CCCCC2CCC(=O)N2CCc3sccc3C2c2cccc(C(F)(F)F)c2)c(C)cc1Cl (stereo not drawn) [Example 34, 3-(1-(4-chloro-2,5-dimethylphenylsulfonyl)piperidin-2-yl)-1-(4-(3-(trifluoromethyl)phenyl)-6,7-dihydrothieno[3,2-c]pyridin-5(4H)-yl)propan-1-one]	57	29
